Reference: the supplement of paper PMC10307832

Tests used:
Test in all cases: relative viability (nuclei count vs DMSO), 5 days (fraction); higher = more cells survive
COR-L 105 = tested on: COR-L 105
Method in brief: (§1)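 Lung cancer cell lines were pin-tool dosed in 1536-well plates on the day after seeding, with either a lone drug or a fixed anchor-drug dose plus five library-drug doses (not always all listed) in √10 steps. Nuclei were counted on 4× images after 5 days. Relative viability is the ratio of treated-well to vehicle-well nuclei counts, with each value a median of duplicate plates.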

COR-L23 = tested on: COR-L23
Method in brief: as §1

EKVX = tested on: EKVX
Method in brief: as §1

HARA = tested on: HARA
Method in brief: as §1

HCC-15 = tested on: HCC-15
Method in brief: as §1

HOP-62 = tested on: HOP-62
Method in brief: as §1

NCI-H1355 = tested on: NCI-H1355
Method in brief: as §1

NCI-H1395 = tested on: NCI-H1395
Method in brief: as §1

NCI-H1734 = tested on: NCI-H1734
Method in brief: as §1

NCI-H1755 = tested on: NCI-H1755
Method in brief: as §1

NCI-H1793 = tested on: NCI-H1793
Method in brief: as §1

NCI-H1993 = tested on: NCI-H1993
Method in brief: as §1

NCI-H2009 = tested on: NCI-H2009
Method in brief: as §1

NCI-H2170 = tested on: NCI-H2170
Method in brief: as §1

NCI-H2228 = tested on: NCI-H2228
Method in brief: as §1

NCI-H2342 = tested on: NCI-H2342
Method in brief: as §1

NCI-H2347 = tested on: NCI-H2347
Method in brief: as §1

NCI-H358 = tested on: NCI-H358
Method in brief: as §1

NCI-H647 = tested on: NCI-H647
Method in brief: as §1

NCI-H838 = tested on: NCI-H838
Method in brief: as §1

PC-14 = tested on: PC-14
Method in brief: as §1

SK-MES-1 = tested on: SK-MES-1
Method in brief: as §1

UMC-11 = tested on: UMC-11
Method in brief: as §1

With `NC(=O)Nc1cc(-c2cccc(F)c2)sc1C(=O)N[C@H]1CCCNC1` [AZD7762] + CC(=O)c1c(C)c2cnc(Nc3ccc(N4CCNCC4)cn3)nc2n(C2CCCC2)c1=O [Palbociclib] (partner 0.5 µM) the relative viability (COR-L 105; first compound 0.01 µM) was 0.414, the relative viability (COR-L 105; first compound 0.03162 µM) was 0.415 and the relative viability (COR-L 105; first compound 0.1 µM) was 0.367. The relative viability (COR-L 105; first compound 0.3162 µM) was 0.386, the relative viability (COR-L 105; first compound 1 µM) was 0.372 and the relative viability (COR-L23; first compound 0.01 µM) was 0.307. It also gave a relative viability (COR-L23; first compound 0.03162 µM) of 0.332, a relative viability (COR-L23; first compound 0.1 µM) of 0.412 and a relative viability (COR-L23; first compound 0.3162 µM) of 0.261. It also gave a relative viability (COR-L23; first compound 1 µM) of 0.117, a relative viability (EKVX; first compound 0.01 µM) of 0.414 and a relative viability (EKVX; first compound 0.03162 µM) of 0.415. For the same compound, the relative viability (EKVX; first compound 0.1 µM) was 0.372, the relative viability (EKVX; first compound 0.3162 µM) was 0.445 and the relative viability (EKVX; first compound 1 µM) was 0.299. It also gave a relative viability (HARA; first compound 0.01 µM) of 0.308, a relative viability (HARA; first compound 0.03162 µM) of 0.245 and a relative viability (HARA; first compound 0.1 µM) of 0.254. The relative viability (HARA; first compound 0.3162 µM) was 0.31, the relative viability (HARA; first compound 1 µM) was 0.265 and the relative viability (HCC-15; first compound 0.01 µM) was 0.74. It also gave a relative viability (HCC-15; first compound 0.03162 µM) of 0.738, a relative viability (HCC-15; first compound 0.1 µM) of 0.802 and a relative viability (HCC-15; first compound 0.3162 µM) of 0.676. It also gave a relative viability (HCC-15; first compound 1 µM) of 0.718, a relative viability (HOP-62; first compound 0.01 µM) of 0.476 and a relative viability (HOP-62; first compound 0.03162 µM) of 0.394. It also gave a relative viability (HOP-62; first compound 0.1 µM) of 0.545, a relative viability (HOP-62; first compound 0.3162 µM) of 0.484 and a relative viability (HOP-62; first compound 1 µM) of 0.487. It also gave a relative viability (NCI-H1355; first compound 0.01 µM) of 0.415, a relative viability (NCI-H1355; first compound 0.03162 µM) of 0.389 and a relative viability (NCI-H1355; first compound 0.1 µM) of 0.389. It also gave a relative viability (NCI-H1355; first compound 0.3162 µM) of 0.418, a relative viability (NCI-H1355; first compound 1 µM) of 0.39 and a relative viability (NCI-H1395; first compound 0.01 µM) of 0.642. The relative viability (NCI-H1395; first compound 0.03162 µM) was 0.68, the relative viability (NCI-H1395; first compound 0.1 µM) was 0.56 and the relative viability (NCI-H1395; first compound 0.3162 µM) was 0.456. For the same compound, the relative viability (NCI-H1395; first compound 1 µM) was 0.363, the relative viability (NCI-H1734; first compound 0.01 µM) was 0.38 and the relative viability (NCI-H1734; first compound 0.03162 µM) was 0.364. For the same compound, the relative viability (NCI-H1734; first compound 0.1 µM) was 0.395, the relative viability (NCI-H1734; first compound 0.3162 µM) was 0.356 and the relative viability (NCI-H1734; first compound 1 µM) was 0.317. For the same compound, the relative viability (NCI-H1755; first compound 0.01 µM) was 0.483, the relative viability (NCI-H1755; first compound 0.03162 µM) was 0.488 and the relative viability (NCI-H1755; first compound 0.1 µM) was 0.466. The relative viability (NCI-H1755; first compound 0.3162 µM) was 0.495, the relative viability (NCI-H1755; first compound 1 µM) was 0.442 and the relative viability (NCI-H1793; first compound 0.01 µM) was 0.34. For the same compound, the relative viability (NCI-H1793; first compound 0.03162 µM) was 0.343, the relative viability (NCI-H1793; first compound 0.1 µM) was 0.373 and the relative viability (NCI-H1793; first compound 0.3162 µM) was 0.347. For the same compound, the relative viability (NCI-H1793; first compound 1 µM) was 0.225, the relative viability (NCI-H1993; first compound 0.01 µM) was 0.84 and the relative viability (NCI-H1993; first compound 0.03162 µM) was 0.648. For the same compound, the relative viability (NCI-H1993; first compound 0.1 µM) was 0.709, the relative viability (NCI-H1993; first compound 0.3162 µM) was 0.589 and the relative viability (NCI-H1993; first compound 1 µM) was 0.652. For the same compound, the relative viability (NCI-H2009; first compound 0.01 µM) was 0.155, the relative viability (NCI-H2009; first compound 0.03162 µM) was 0.214 and the relative viability (NCI-H2009; first compound 0.1 µM) was 0.221. The relative viability (NCI-H2009; first compound 0.3162 µM) was 0.175, the relative viability (NCI-H2009; first compound 1 µM) was 0.13 and the relative viability (NCI-H2170; first compound 0.01 µM) was 0.437. The relative viability (NCI-H2170; first compound 0.03162 µM) was 0.397, the relative viability (NCI-H2170; first compound 0.1 µM) was 0.425 and the relative viability (NCI-H2170; first compound 0.3162 µM) was 0.424. For the same compound, the relative viability (NCI-H2170; first compound 1 µM) was 0.415, the relative viability (NCI-H2228; first compound 0.01 µM) was 0.787 and the relative viability (NCI-H2228; first compound 0.03162 µM) was 0.937. It also gave a relative viability (NCI-H2228; first compound 0.1 µM) of 0.896, a relative viability (NCI-H2228; first compound 0.3162 µM) of 0.283 and a relative viability (NCI-H2228; first compound 1 µM) of 0.156. For the same compound, the relative viability (NCI-H2342; first compound 0.01 µM) was 0.492, the relative viability (NCI-H2342; first compound 0.03162 µM) was 0.513 and the relative viability (NCI-H2342; first compound 0.1 µM) was 0.447. It also gave a relative viability (NCI-H2342; first compound 0.3162 µM) of 0.483, a relative viability (NCI-H2342; first compound 1 µM) of 0.505 and a relative viability (NCI-H2347; first compound 0.01 µM) of 0.542. The relative viability (NCI-H2347; first compound 0.03162 µM) was 0.469, the relative viability (NCI-H2347; first compound 0.1 µM) was 0.479 and the relative viability (NCI-H2347; first compound 0.3162 µM) was 0.509. For the same compound, the relative viability (NCI-H2347; first compound 1 µM) was 0.461, the relative viability (NCI-H358; first compound 0.01 µM) was 0.182 and the relative viability (NCI-H358; first compound 0.03162 µM) was 0.141. The relative viability (NCI-H358; first compound 0.1 µM) was 0.111, the relative viability (NCI-H358; first compound 0.3162 µM) was 0.105 and the relative viability (NCI-H358; first compound 1 µM) was 0.0964. The relative viability (NCI-H647; first compound 0.01 µM) was 0.434, the relative viability (NCI-H647; first compound 0.03162 µM) was 0.424 and the relative viability (NCI-H647; first compound 0.1 µM) was 0.359. For the same compound, the relative viability (NCI-H647; first compound 0.3162 µM) was 0.163, the relative viability (NCI-H647; first compound 1 µM) was 0.125 and the relative viability (NCI-H838; first compound 0.01 µM) was 0.27. For the same compound, the relative viability (NCI-H838; first compound 0.03162 µM) was 0.198, the relative viability (NCI-H838; first compound 0.1 µM) was 0.243 and the relative viability (NCI-H838; first compound 0.3162 µM) was 0.221. The relative viability (NCI-H838; first compound 1 µM) was 0.221, the relative viability (PC-14; first compound 0.01 µM) was 0.601 and the relative viability (PC-14; first compound 0.03162 µM) was 0.469. For the same compound, the relative viability (PC-14; first compound 0.1 µM) was 0.326, the relative viability (PC-14; first compound 0.3162 µM) was 0.203 and the relative viability (PC-14; first compound 1 µM) was 0.0753. The relative viability (SK-MES-1; first compound 0.01 µM) was 0.339, the relative viability (SK-MES-1; first compound 0.03162 µM) was 0.337 and the relative viability (SK-MES-1; first compound 0.1 µM) was 0.328. It also gave a relative viability (SK-MES-1; first compound 0.3162 µM) of 0.279, a relative viability (SK-MES-1; first compound 1 µM) of 0.2 and a relative viability (UMC-11; first compound 0.01 µM) of 0.373. The relative viability (UMC-11; first compound 0.03162 µM) was 0.302, the relative viability (UMC-11; first compound 0.1 µM) was 0.34 and the relative viability (UMC-11; first compound 0.3162 µM) was 0.301. It also gave a relative viability (UMC-11; first compound 1 µM) of 0.231.
